Assay results: patent publication US20210283211A1, “COMPOSITIONS AND METHODS OF ALLEVIATING RESISTANCE TO CHEMOTHERAPY” (CITY OF HOPE, priority 2019, published 2021)
Entries after “also recorded” stand apart in the source; their conditions may differ.

Tests used:
[1] = tested on: ITGB4, PXN, USP1, VDAC1, CD133 in patient-derived organoids; test: Immunoblot of treated patient-derived organoids; assay type: cell-based, human; settings: 48 hours, printed 2.5 mM and 5 mM
[2] = tested on: patient-derived organoids (lung cancer); test: Patient tumor tissue-derived organoid assay (area, caspase activity); assay type: cell-based, human
Procedure: Next, drug efficacy in patient tumor tissue-derived organoids was determined. Approximately 5000 cells/sample from 2 surgical samples were seeded in an ultra-low attachment plate and incubated at 37° C. […] In one of the patient-derived organoids, cisplatin treatment alone decreased spheroid area and increased apoptosis as measured by green intensity (FIG. 11D). […] Indeed, by 72 hours carfilzomib at a concentration of 2.5 μM induced 5-fold increase in caspase activity compared to cisplatin alone but there was not much change in the spheroid area (FIGS. 11E-11F). Thus, no additive effect was apparent in this patient sample. […] The efficacy of ITGB4 antibody in disrupting organoid growth and inducing apoptosis was also tested.

[3] = tested on: ITGB4, PXN, FAK, MET, γH2AX, cleaved PARP in H1993 cells; test: Immunoblot; assay type: cell-based, human; settings: 50-200 nM carfilzomib
Procedure: (§1) West blotting: Cell lysates were prepared with 1×RIPA buffer (MilliporeSigma) and denatured in 1× reducing sample buffer at 95° C. for 5 minutes. Protein samples (15 μg) were run on 4-15% TGX gels (Bio-Rad, Hercules, Calif., USA) and transferred onto nitrocellulose membranes (Bio-Rad). Blots were blocked with 5% non-fat milk in TBS-T for 1 hour at room temperature and probed with primary antibody diluted in 2.5% BSA in TBS-T overnight at 4° C. After three washes with TBS-T, blots were incubated with HRP-conjugated secondary antibodies for 2 hours at room temperature. After three more washes, bands of interest were visualized via chemiluminescence using Western Bright ECL HRP substrate (Advansta, Menlo Park, Calif., USA) and imaged with the ChemiDoc MP imager (Bio-Rad).
(§2) Then a sublethal dose was used to determine the effect of these compounds on ITGB4 and PXN expression and caspase activity (FIG. 9I). […] These eleven compounds were further screened in the cisplatin-resistant cell line H2009. […] Further, carfilzomib was tested in another cisplatin-resistant cell line H1993.

[4] = tested on: ITGB4, PXN, FAK, p27, phospho-Rb, γH2AX, cleaved PARP in H2009 cells; test: Immunoblot; assay type: cell-based, human; settings: sublethal dose
Procedure: as §1, §2

H358 cells = test: Cell-based rescreen of top virtual-screen hits, IC50 determination; settings: Homo sapiens, NCI-H358, 0.1 μM to 10 μM, 72 hours
Procedure: Cell viability assay: Cell Counting Kit-8 (CCK-8) was purchased from Dojindo Molecular Technologies (Rockville, Md., USA). Cells were seeded on a 96-well plate and allowed to adhere in complete medium for 24 hours. Test compounds were added to 100 μl of medium at the indicated concentrations for 72 hours. Ten μl of the CCK-8 reagent were added to each well and absorbance at 450 nm was measured using a Tecan Spark 10M multimode microplate reader.
A virtual screen of a library of 1440 FDA-approved drugs using binding pockets in the N-terminal domain of PXN (FIG. 9H) identified several putative hits. The top 40 hits were then rescreened employing a cell-based assay to determine their efficacy using H358 cells.

H2009 spheroids = test: 3D spheroid assay (red fluorescence viability, caspase-3/7); assay type: cell-based, human; settings: 300 nM, 72 hours
Procedure: 3D spheroid assay. 3D spheroid experiments were performed using cell lines stably transfected with NucLight Red Lentivirus (Essen Bioscience) to visualize red fluorescence as an indicator of cell viability. Cells were seeded on a 96-well ultra-low attachment plate and allowed to form spheroids overnight. Drug treatment was added as indicated along with Cytotox Green Reagent (Essen BioScience), used as a green fluorescence indicator of cell death due to loss of cell membrane integrity. To monitor cell proliferation and apoptosis over time, the plate was placed in the IncuCyte S3 Live-Cell Analysis System (Essen BioScience) and images were acquired every 2 hours. Data analysis was generated by the IncuCyte software using a red fluorescence mask to accurately measure intensity and area of red fluorescence, indicating spheroid viability and a green fluorescence mask, indicating cell death.
Confocal microscopy. […] Images were processed using ZEN software and analyzed using ImageJ (Schneider, C. A.; Rasband, W. S. & Eliceiri, K. W. (2012), “NIH Image to ImageJ: 25 years of image analysis”, Nature methods 9(7): 671-675, PMID 22930834).
To mimic conditions closer to in vivo, the effect of knocking down PXN or ITGB4 was discerned in spheroids (3D) formed from the cell lines used in 2D culture. […] The spheroid growth and survival were quantitated by monitoring dye intensity and area in real time. […]

CC(C)C[C@H](NC(=O)[C@H](CCc1ccccc1)NC(=O)CN1CCOCC1)C(=O)N[C@@H](Cc1ccccc1)C(=O)N[C@@H](CC(C)C)C(=O)[C@@]1(C)CO1 [Carfilzomib]
protein expression by immunoblot [1]: decrease in the expression of ITGB4, USP1, PXN and VDAC1; also recorded: decreased expression of ITGB4, PXN, USP1, VDAC1 and CD133 | spheroid area ([2]; patient LCSC2): decreased the spheroid area | caspase activity, combination with cisplatin ([2]; patient LCSC2, both drugs combined): enhanced | apoptosis, combination with cisplatin ([2]; patient LCSC4, carfilzomib and cisplatin combined): did not have an additive effect | organoid size ([2]; patient LCSC4, cisplatin 5 μM alone, carfilzomib 2.5 μM alone): decreased the size of the organoid | induction of apoptosis (caspase activity) compared to cisplatin alone ([2]; patient LCSC4 organoids, 2.5 μM, by 72 hours): 5 fold | increase in apoptosis (caspase activity) ([2]; second patient (LCSC2) organoids): ~50 fold | protein expression by immunoblot [3]: reduction in ITGB4 expression and increase in cleaved PARP and γH2AX | protein expression by immunoblot [4]: reduced ITGB4 and PXN expression; also recorded: reduced expression of ITGB4 and phospho-Rb (S807/811) and increased expression of p27, γH2AX, and cleaved PARP | IC50 (H358 cells): 0.8 nM | drop in red intensity of spheroid (H2009 spheroids): 2 fold | increase in caspase activity (H2009 spheroids): 2 fold
